Test system: Male Sprague-Dawley rats
Test: Cold pressor test in anesthetized rat
Type: in vivo
Conditions: 6 mg/kg i.v., time 10′, mean arterial pressure change on forelimb ice
Procedure: Compounds of Formula (I) can be tested in animals and humans for their ability to mitigate cardiovascular pressor responses evoked by cold exposure. The clinical cold pressor test assesses changes in blood pressure (BP) and cold pain perception during a 2-3 minute immersion of one hand into ice water. This test may be utilized to characterize analgesic compounds (Koltzenberg M et al. Pain. 2006, 126(1-3): 165-74) and to assess cold hypersensitivity (Desmeules J A et al. Arthritis Rheum. 2003, 48(5): 1420-9). A compound of Formula (I) was studied in an anesthetized rat cold pressor paradigm to determine whether TRPM8 antagonism would interfere with the blood pressure pressor response to cold stimulation of the forepaws. Male Sprague-Dawley rats (300-450 g) anesthetized with sodium pentobarbital were instrumented with a jugular catheter and an indwelling carotid artery pressure transducer. Vehicle (10% Solutol in water) or test compound was infused (1 mL/kg) over one minute through the intravenous catheter. […] Percent changes in mean arterial pressure in response to this cold stimulus were calculated for vehicle and test compound pretreatments. Percent inhibition attributed to treatment with test compound was then determined using the following formula: % Inhibition=[1−(cold evoked % change in BP post-test compound/cold evoked % change in BP post-vehicle)]×100.

CC(C)OP(=O)(OC(C)C)[C@@H](Cc1ccc(F)c(C(F)(F)F)c1)c1sc2ccccc2c1Br [Cpd 242, (S)-[1-(3-Bromo-benzo[b]thiophen-2-yl)-2-(4-fluoro-3-trifluoromethyl-phenyl)-ethyl]-phosphonic acid diisopropyl ester]
% I (inhibition of cold-induced pressor response): 54%
